Test results from the supplement of paper PMC10307832.

How the values were obtained:
Assay in all cases: relative viability (nuclei count vs DMSO), 5 days (fraction); higher = more cells survive
[1] = compound: O=C(c1cc(Cc2n[nH]c(=O)c3ccccc23)ccc1F)N1CCN(C(=O)C2CC2)CC1 [Olaparib] + COc1cccc2cc(-c3nc([C@H]4CC[C@H](C(=O)O)CC4)n4ncnc(N)c34)[nH]c12 [OSI-027] (partner 0.5 µM)
Summary of the method: (§1)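 Each reported value is a median over duplicate plates. It expresses relative viability: treated-well nuclei count divided by vehicle-well nuclei count. Lung cancer cell lines in 1536-well plates were dosed by pin tool a day after seeding, alone with one drug or with a fixed anchor-drug dose plus five library-drug doses (not always all listed) in √10 steps, and nuclei were counted after 5 days.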

[2] = compound: CC(C)C[C@H](NC(=O)[C@H](CCc1ccccc1)NC(=O)CN1CCOCC1)C(=O)N[C@@H](Cc1ccccc1)C(=O)N[C@@H](CC(C)C)C(=O)[C@@]1(C)CO1 [Carfilzomib] + CC(C)C[C@H](NC(=O)[C@H](Cc1ccccc1)NC(=O)c1cnccn1)B(O)O [Bortezomib] (partner 0.002 µM)
Summary of the method: as §1

[3] = compound: CC(C)C[C@H](NC(=O)[C@H](CCc1ccccc1)NC(=O)CN1CCOCC1)C(=O)N[C@@H](Cc1ccccc1)C(=O)N[C@@H](CC(C)C)C(=O)[C@@]1(C)CO1 [Carfilzomib] + COc1cc2c(Oc3ccc(NC(=O)C4(C(=O)Nc5ccc(F)cc5)CC4)cc3F)ccnc2cc1OCCCN1CCOCC1 [Foretinib] (partner 0.25 µM)
Summary of the method: as §1

[4] = compound: O=C(c1cc(Cc2n[nH]c(=O)c3ccccc23)ccc1F)N1CCN(C(=O)C2CC2)CC1 [Olaparib] + NC(=O)Nc1cc(-c2cccc(F)c2)sc1C(=O)N[C@H]1CCCNC1 [AZD7762] (partner 0.2 µM)
Summary of the method: as §1

Cell Line	relative viability ([1]; first compound 0.08 µM)	relative viability ([1]; first compound 0.253 µM)	relative viability ([1]; first compound 2.53 µM)	relative viability ([1]; first compound 8 µM)	relative viability ([2]; first compound 0.001 µM)	relative viability ([2]; first compound 0.003162 µM)	relative viability ([2]; first compound 0.01 µM)	relative viability ([2]; first compound 0.03162 µM)	relative viability ([2]; first compound 0.1 µM)	relative viability ([3]; first compound 0.001 µM)	relative viability ([3]; first compound 0.003162 µM)	relative viability ([3]; first compound 0.01 µM)	relative viability ([3]; first compound 0.03162 µM)	relative viability ([3]; first compound 0.1 µM)	relative viability ([4]; first compound 0.08 µM)	relative viability ([4]; first compound 0.253 µM)	relative viability ([4]; first compound 2.53 µM)	relative viability ([4]; first compound 8 µM)
LCLC-103H	0.52	0.432	0.512	0.412	1	1.14	0.678	0.294	0.27	0.772	0.714	0.814	0.646	0.225	0.916	0.773	0.727	0.56
NCI-H838	0.417	0.367	0.38	0.405	0.772	0.838	0.624	0.179	0.114	1.06	1.12	1.15	0.974	0.131	1.09	0.949	0.912	0.801
BEN	–	0.268	0.301	0.296	0.518	0.929	0.883	0.485	0.281	0.575	0.69	0.577	0.577	0.339	0.638	0.571	0.727	0.664
NCI-H1651	0.756	0.615	0.545	0.445	0.895	0.836	0.647	0.292	0.134	0.906	0.762	0.71	0.112	0.0981	0.486	0.424	0.363	0.184
NCI-H2087	0.794	0.489	0.501	0.49	0.803	0.793	0.202	0.0909	0.101	1.03	1.15	0.693	0.0563	0.0605	1.43	1.15	1.3	0.959
NCI-H460	0.677	0.643	0.434	0.215	1.06	1.12	1	0.0827	0.0107	0.97	1.05	0.988	0.75	0.0297	0.595	0.513	0.357	0.126
NCI-H1993	0.585	0.502	0.389	0.527	0.912	1.18	1.1	0.453	0.425	0.798	0.865	0.81	0.778	0.444	0.748	0.736	1.04	0.824
NCI-H23	0.8	0.58	0.465	0.367	1.01	0.92	0.445	0.165	0.125	0.873	1.11	1.09	0.188	0.134	0.3	0.269	0.269	0.147
LCLC-97TM1	0.525	0.527	0.587	0.323	0.292	0.714	0.268	0.0483	0.0702	0.958	0.874	0.893	0.529	0.25	0.294	0.202	–	0.168
NCI-H1915	0.612	0.572	0.533	0.374	0.906	0.849	1.03	0.142	0.0581	1.09	1.09	1.05	1.04	0.203	0.544	0.561	0.404	0.245
LOU-NH91	0.764	0.638	0.764	0.729	0.438	0.49	0.362	0.26	0.263	0.934	1.04	0.875	0.303	0.224	0.838	0.739	0.789	0.761
EKVX	0.79	0.626	0.61	0.765	1.03	1.08	1.14	0.285	0.345	0.51	0.945	1.24	0.309	0.765	0.81	0.618	0.782	0.741
LXF-289	0.955	0.761	0.759	0.755	1.03	0.957	0.653	0.0711	0.0774	1	0.945	0.948	0.464	0.0789	1.27	1.02	1.28	1.17
HCC-827	0.772	0.732	0.872	0.65	1.01	1.01	1.06	0.677	0.422	1.09	1.06	1.08	0.928	0.387	0.259	0.214	0.239	0.224
NCI-H3122	1.14	0.954	1.01	0.814	1.04	0.996	1.05	0.855	0.814	0.948	0.992	0.92	0.781	0.318	1.03	0.945	0.908	0.559
NCI-H2126	0.766	0.669	0.794	0.639	1.11	1.12	1.1	0.945	0.554	1.2	1.3	1.2	1.12	0.48	1.08	0.942	0.959	0.948
HARA	0.68	0.446	0.47	0.438	1.2	1.05	0.394	0.0539	0.0619	0.93	0.963	1.1	0.0689	0.0561	0.302	0.43	0.251	0.206
LC-2-ad	0.926	0.731	0.856	0.796	0.947	1.08	0.482	0.132	0.0828	0.881	1.01	1.08	0.903	0.221	0.89	0.76	0.851	0.727
EMC-BAC-2	0.41	0.364	0.357	0.358	1.03	1.06	1.07	0.66	0.448	1.02	1.08	1.12	0.975	0.221	1.25	1.08	1.08	0.91
NCI-H596	0.718	0.782	0.718	0.642	0.885	0.987	0.839	0.483	0.2	0.813	0.84	0.812	0.195	0.148	1.19	0.981	1.04	0.703
NCI-H2347	0.472	0.371	0.344	0.37	0.611	0.89	0.698	0.361	0.268	0.958	0.909	1.43	0.698	0.181	0.905	0.749	0.665	0.549
HCC-78	0.373	0.379	0.349	0.332	0.474	0.514	0.402	0.192	0.193	0.541	0.576	0.581	0.571	0.322	0.839	0.664	0.672	0.737
NCI-H322M	0.713	0.523	0.518	0.456	1.27	1.31	1.35	1.21	0.66	0.981	1.01	0.999	0.943	0.359	0.724	0.608	0.521	0.496
NCI-H2085	1.15	0.687	0.698	0.751	1.03	0.923	0.773	0.451	0.313	0.909	0.925	0.829	0.249	0.226	1.1	0.875	0.962	0.881
LU99A	0.31	0.274	0.288	0.258	1.09	1.31	1.05	0.459	0.216	0.943	0.772	0.847	0.565	0.246	0.337	0.213	0.204	0.125
HCC-15	0.83	0.652	0.6	0.638	0.979	0.978	1.01	0.481	0.0765	0.96	1.19	1.12	0.589	0.149	1.24	1.11	1.23	1.08
RERF-LC-KJ	0.66	0.592	0.598	0.614	0.994	1.05	0.926	0.47	0.258	0.873	0.86	0.886	0.794	0.409	1.11	0.825	0.883	1.08
NCI-H647	0.701	0.596	0.688	0.482	0.674	0.72	0.154	0.0243	0.0299	1.19	1.33	1.26	0.0352	0.0362	0.508	0.379	0.343	0.156
201T	0.724	0.611	0.699	0.764	1.09	1.06	1.1	1.09	0.732	1.13	1.14	1.16	1.02	0.29	0.641	0.609	0.522	0.383
